Assay results published in paper PMC8282492 (Journal of Ginseng Research, 2020).

T1: human 14-3-3 ζ (Homo sapiens, UniProt P63104)
T1 sequence (P63104 1-245): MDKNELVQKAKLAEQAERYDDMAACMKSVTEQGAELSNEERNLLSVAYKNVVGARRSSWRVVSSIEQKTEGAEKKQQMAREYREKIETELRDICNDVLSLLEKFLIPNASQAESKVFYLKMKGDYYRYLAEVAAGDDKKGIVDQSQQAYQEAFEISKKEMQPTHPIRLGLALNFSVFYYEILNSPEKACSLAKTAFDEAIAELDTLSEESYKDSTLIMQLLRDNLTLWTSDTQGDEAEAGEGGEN

T2: 14-3-3 ζ protein (human), P63104
T2 chain: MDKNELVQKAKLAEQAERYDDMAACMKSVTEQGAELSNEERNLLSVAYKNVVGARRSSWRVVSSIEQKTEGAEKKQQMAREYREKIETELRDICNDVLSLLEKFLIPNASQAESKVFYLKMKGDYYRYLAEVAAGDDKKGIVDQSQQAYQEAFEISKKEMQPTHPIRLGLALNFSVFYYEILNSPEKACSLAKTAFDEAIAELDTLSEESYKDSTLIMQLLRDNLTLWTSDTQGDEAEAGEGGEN


Each molecule was assayed against T1, human 14-3-3 ζ (assay: BLI direct binding response of ginsenosides to immobilised 14-3-3 ζ). Conditions: compound concentration 271μM; Fig. 3A and B.

| direct binding response to 14-3-3 ζ (BLI) | Molecule |
| --- | --- |
| significant affinity | CC(C)=CCC[C@](C)(O)[C@H]1CC[C@]2(C)[C@@H]1[C@H](O)C[C@@H]1[C@@]3(C)CC[C@H](O)C(C)(C)[C@@H]3[C@@H](O)C[C@]12C [PPT, 20(S)-protopanaxatriol] |
| significant affinity | CC(C)=CCC[C@](C)(O[C@@H]1O[C@H](CO)[C@@H](O)[C@H](O)[C@H]1O)[C@H]1CC[C@]2(C)[C@@H]1[C@H](O)C[C@@H]1[C@@]3(C)CC[C@H](O)C(C)(C)[C@@H]3[C@@H](O[C@@H]3O[C@H](CO)[C@@H](O)[C@H](O)[C@H]3O)C[C@]12C [Rg1] |
| barely interacted | CC(C)=CCC[C@](C)(O[C@@H]1O[C@H](CO)[C@@H](O)[C@H](O)[C@H]1O)[C@H]1CC[C@]2(C)[C@@H]1[C@H](O)C[C@@H]1[C@@]3(C)CC[C@H](O)C(C)(C)[C@@H]3[C@@H](O)C[C@]12C [F1] |
| barely interacted | CC(C)=CCC[C@](C)(O[C@@H]1O[C@H](CO[C@@H]2O[C@H](CO)[C@@H](O)[C@H](O)[C@H]2O)[C@@H](O)[C@H](O)[C@H]1O)[C@H]1CC[C@]2(C)[C@@H]1[C@H](O)C[C@@H]1[C@@]3(C)CC[C@H](O[C@@H]4O[C@H](CO)[C@@H](O)[C@H](O)[C@H]4O[C@@H]4O[C@H](CO)[C@@H](O)[C@H](O)[C@H]4O)C(C)(C)[C@@H]3CC[C@]12C [Rb1] |

| Molecule | direct binding response to 14-3-3 ζ (BLI) |
| --- | --- |
| CC(C)=CCC[C@](C)(O[C@@H]1O[C@H](CO)[C@@H](O)[C@H](O)[C@H]1O)[C@H]1CC[C@]2(C)[C@@H]1[C@H](O)C[C@@H]1[C@@]3(C)CC[C@H](O)C(C)(C)[C@@H]3CC[C@]12C [CK, ginsenoside compound K] | significant affinity |
| CC(C)=CCC[C@](C)(O)[C@H]1CC[C@]2(C)[C@@H]1[C@H](O)C[C@@H]1[C@@]3(C)CC[C@H](O[C@@H]4O[C@H](CO)[C@@H](O)[C@H](O)[C@H]4O)C(C)(C)[C@@H]3CC[C@]12C [Rh2] | significant affinity |
| CC(C)=CCC[C@](C)(O)[C@H]1CC[C@]2(C)[C@@H]1[C@H](O)C[C@@H]1[C@@]3(C)CC[C@H](O)C(C)(C)[C@@H]3[C@@H](O[C@@H]3O[C@H](CO)[C@@H](O)[C@H](O)[C@H]3O)C[C@]12C [Rh1] | barely interacted |

Molecular target: T2, 14-3-3 ζ protein (human), P63104
Assay: crystal structure
Conditions: remark: other sources report otherwise

| stoichiometry N | Molecule |
| --- | --- |
| 2 | 14-3-3 ζ protein, P63104 1-245 (natural protein) MDKNELVQKAKLAEQAERYDDMAACMKSVTEQGAELSNEERNLLSVAYKNVVGARRSSWRVVSSIEQKTEGAEKKQQMAREYREKIETELRDICNDVLSLLEKFLIPNASQAESKVFYLKMKGDYYRYLAEVAAGDDKKGIVDQSQQAYQEAFEISKKEMQPTHPIRLGLALNFSVFYYEILNSPEKACSLAKTAFDEAIAELDTLSEESYKDSTLIMQLLRDNLTLWTSDTQGDEAEAGEGGEN |
